Laboratory results taken from paper PMC4335062, “Data-Driven Prediction and Design of bZIP Coiled-Coil Interactions” (PLoS Computational Biology, 2015).
Read-outs that look alike come from different tables or passages of the source. Where no end group is shown, it is not given here.

Key:
Test in all cases: Direct-binding FRET assay
[1] = target: T1, ATF2 (Homo sapiens, UniProt P15336); details: read-out: Kd
T1 construct: made in house
T1 sequence (P15336 352-415 limits assumed): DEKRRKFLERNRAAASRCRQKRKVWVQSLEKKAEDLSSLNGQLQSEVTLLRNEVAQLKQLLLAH
Description: (§1) The direct binding assay was performed manually in 384-well plates and is similar to a previously described assay. Wells were filled with 20 μL of 1 mM TCEP-HCl. A 4 μM stock of acceptor protein was made fresh in 1 mM TCEP-HCl, and 20 μL was titrated in 2-fold dilutions over the wells. […] The direct-binding FRET data were fit as previously described. Briefly, the Kd of the designed peptide homodimer was experimentally determined and used with previously determined target homodimer Kd values to determine the heterodimer Kd. The homodimer Kd values used for the human bZIPs were from; experiments done by […] et al. used the same protein constructs for the human bZIP proteins, the same buffer conditions, and the same assay. The fitting used a system of ordinary differential equations to describe the concentrations of homo and heterodimers formed by the donor (D) and acceptor (A) as a function of the heterodimer Kd. MATLAB was used to simulate the binding experiment for different Kd values, and the value that gave the best agreement between simulation and experiment was assigned. A minimum 15% change in the donor fluorescence upon titrating the acceptor peptide from 0 to 1000 nM was required for a fit to be attempted. If this minimum was not met, the interaction was classified as “NS” for no signal change. […] These interactions were marked “AS” to indicate anomalous signal. We attributed this to interactions between the peptides, the dyes and the walls of the assay plates at low concentrations. These curves could not be fit, given their unusual shapes at low concentrations of acceptor. For such curves, we removed the first five points and re-fit the data. […] One example of this is increasing concentrations of acceptor causing an increase in donor fluorescence.

[2] = target: T2, ATF5 (Homo sapiens, UniProt Q9Y2D1); details: read-out: Kd
T2 construct: made in house
T2 sequence (Q9Y2D1 208-271 limits assumed): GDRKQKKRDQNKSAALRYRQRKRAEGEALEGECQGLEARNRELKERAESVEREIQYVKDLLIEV
Description: as §1

[3] = target: T3, BATF (Homo sapiens, UniProt Q16520); details: read-out: Kd
T3 construct: made in house
T3 sequence (Q16520 26-89 limits assumed): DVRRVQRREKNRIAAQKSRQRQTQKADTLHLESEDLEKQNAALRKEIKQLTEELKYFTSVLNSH
Description: as §1

[4] = target: T4, BATF2 (Homo sapiens, UniProt Q8N1L9); details: read-out: Kd
T4 construct: made in house
T4 sequence (Q8N1L9 17-80 limits assumed): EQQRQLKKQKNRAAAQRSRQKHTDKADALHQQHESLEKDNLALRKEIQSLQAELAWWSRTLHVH
Description: as §1

[5] = target: T5, BATF3 (Homo sapiens, UniProt Q9NR55); details: mean or single, read-out: Kd
T5 construct: made in house
T5 sequence (Q9NR55 35-98 limits assumed): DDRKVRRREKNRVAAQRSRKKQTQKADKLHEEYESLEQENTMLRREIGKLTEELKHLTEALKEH
Description: as §1

[6] = target: T6, CREB3L1 (Homo sapiens, UniProt Q96BA8); details: mean or single, read-out: Kd
T6 construct: made in house
T6 sequence (Q96BA8 290-353 limits assumed): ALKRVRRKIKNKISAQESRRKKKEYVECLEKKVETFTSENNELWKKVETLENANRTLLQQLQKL
Description: as §1

[7] = target: T7, CREB3L3 (Homo sapiens, UniProt Q68CJ9); details: read-out: Kd
T7 construct: made in house
T7 sequence (Q68CJ9 243-306 limits assumed): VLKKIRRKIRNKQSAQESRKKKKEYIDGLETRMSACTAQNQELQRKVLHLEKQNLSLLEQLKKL
Description: as §1

[8] = target: T8, CREBZF (Homo sapiens, UniProt Q9NS37); details: read-out: Kd
T8 construct: made in house
T8 sequence (Q9NS37 204-267 limits assumed): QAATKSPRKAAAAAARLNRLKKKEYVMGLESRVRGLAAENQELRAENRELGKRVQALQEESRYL
Description: as §1

[9] = target: T9, FOSL1 (Homo sapiens, UniProt P15407); details: read-out: Kd
T9 construct: made in house
T9 sequence (P15407 105-168 limits assumed): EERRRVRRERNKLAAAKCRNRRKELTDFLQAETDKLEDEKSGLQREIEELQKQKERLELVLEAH
Description: as §1

[10] = target: T10, HLF (Homo sapiens, UniProt Q16534); details: read-out: Kd
T10 construct: made in house
T10 sequence (Q16534 225-288 limits assumed): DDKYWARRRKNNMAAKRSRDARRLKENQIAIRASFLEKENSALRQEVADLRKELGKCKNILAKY
Description: as §1

[11] = 4°C, C-terminal fluorescein design as donor, TAMRA target titrated
[12] = 4°C, N-terminal rhodamine design, mean or single
[13] = 23°C, C-terminal fluorescein design as donor, TAMRA target titrated
[14] = 23°C, C-terminal rhodamine design, repeat 1
[15] = 23°C, N-terminal rhodamine design, mean or single
[16] = 37°C, C-terminal fluorescein design as donor, TAMRA target titrated
[17] = 37°C, C-terminal rhodamine design, repeat 1
[18] = 37°C, N-terminal rhodamine design, mean or single
[19] = 4°C, C-terminal rhodamine design, mean or single
[20] = 23°C, C-terminal rhodamine design, mean or single
[21] = 37°C, C-terminal rhodamine design, mean or single
[22] = 4°C, C-terminal rhodamine design
[23] = 4°C, N-terminal rhodamine design
[24] = 23°C, C-terminal rhodamine design
[25] = 23°C, N-terminal rhodamine design
[26] = 37°C, C-terminal rhodamine design
[27] = 37°C, N-terminal rhodamine design

NQIKTLRTRLSKLRKDNLQLEKDIANLERKAKDLRAEKEQLEYEL [ATF4-d1]
Kd [1, 11]: > 5000 nM
Kd ([1]; 4°C, C-terminal rhodamine design, repeat 1): > 5000 nM
Kd [1, 12]: > 1000 nM
Kd [1, 13]: > 1000 nM
Kd [1, 14]: > 1000 nM
Kd [1, 15]: > 1000 nM
Kd [1, 16]: > 5000 nM
Kd [1, 17]: > 5000 nM
Kd [1, 18]: > 1000 nM
Kd [2, 11]: 35.5 nM
Kd [2, 19]: > 5000 nM
Kd [2, 20]: > 5000 nM
Kd [2, 14]: > 5000 nM
Kd ([2]; 23°C, C-terminal rhodamine design, repeat 2): > 5000 nM
Kd ([2]; 23°C, C-terminal rhodamine design, repeat 3): > 5000 nM
Kd ([2]; 23°C, N-terminal rhodamine design, repeat 1): > 1000 nM
Kd [2, 16]: > 1000 nM
Kd [2, 21]: > 5000 nM
Kd [2, 17]: > 5000 nM
Kd ([2]; 37°C, C-terminal rhodamine design, repeat 2): > 5000 nM
Kd ([2]; 37°C, C-terminal rhodamine design, repeat 3): > 5000 nM
Kd [2, 18]: > 1000 nM
Kd ([2]; 37°C, N-terminal rhodamine design, repeat 1): > 1000 nM
Kd ([2]; 37°C, N-terminal rhodamine design, repeat 2): > 1000 nM
Kd ([2]; 37°C, N-terminal rhodamine design, repeat 3): > 1000 nM
Kd [3, 19]: > 1000 nM
Kd [3, 12]: > 5000 nM
Kd [3, 13]: > 1000 nM
Kd [3, 20]: > 1000 nM
Kd [3, 15]: > 1000 nM
Kd [3, 16]: > 1000 nM
Kd [3, 21]: > 1000 nM
Kd [3, 18]: > 1000 nM
Kd [4, 11]: > 1000 nM
Kd [4, 19]: > 1000 nM
Kd [4, 12]: > 1000 nM
Kd [4, 13]: > 1000 nM
Kd [4, 20]: > 1000 nM
Kd [4, 15]: > 1000 nM
Kd [4, 16]: > 1000 nM
Kd [4, 21]: > 1000 nM
Kd [4, 18]: > 1000 nM
Kd [5, 22]: > 1000 nM
Kd [5, 23]: > 1000 nM
Kd [5, 24]: > 1000 nM
Kd [5, 25]: > 1000 nM
Kd [5, 26]: > 1000 nM
Kd [5, 27]: > 1000 nM
Kd [6, 22]: > 5000 nM
Kd [6, 23]: > 1000 nM
Kd [6, 24]: < 200 nM
Kd [6, 25]: > 1000 nM
Kd [6, 26]: > 1000 nM
Kd [6, 27]: > 1000 nM
Kd [7, 11]: > 1000 nM
Kd [7, 19]: > 5000 nM
Kd [7, 12]: > 1000 nM
Kd [7, 13]: > 1000 nM
Kd [7, 20]: > 1000 nM
Kd [7, 15]: > 1000 nM
Kd [7, 16]: > 1000 nM
Kd [7, 21]: > 1000 nM
Kd [7, 18]: > 1000 nM
Kd [8, 19]: > 5000 nM
Kd [8, 12]: < 200 nM
Kd [8, 13]: > 1000 nM
Kd [8, 20]: > 5000 nM
Kd [8, 15]: > 5000 nM
Kd [8, 16]: > 1000 nM
Kd [8, 21]: > 1000 nM
Kd [8, 18]: > 1000 nM
Kd [9, 11]: > 5000 nM
Kd [9, 19]: > 1000 nM
Kd [9, 12]: > 5000 nM
Kd [9, 13]: > 1000 nM
Kd [9, 20]: > 1000 nM
Kd [9, 15]: > 1000 nM
Kd [9, 16]: > 1000 nM
Kd [9, 21]: > 1000 nM
Kd [9, 18]: > 1000 nM
Kd [10, 11]: > 1000 nM
Kd [10, 19]: > 5000 nM
Kd [10, 12]: > 1000 nM
Kd [10, 13]: > 1000 nM
Kd [10, 20]: > 1000 nM
Kd [10, 15]: > 1000 nM
Kd [10, 16]: > 1000 nM
Kd [10, 21]: > 5000 nM
Kd [10, 18]: > 1000 nM
